We go through 13 molecules from patent US20070191627A1, “Stilbene derivatives and their use in medicaments” (priority 2003, published 2007).

For test [1], the system named is HL-60 human promyelocyte leukemia cells. Description: Growth inhibition assay in HL-60 cells (72 h, cell count). The test is classed as cell-based. The conditions noted are these: for IC50: Homo sapiens. As for the experimental part: The human promyelocyte leukemia cell line HL-60 was purchased from the ATCC (American Type Culture Collection, Rockville, Md., USA). The cells were cultured in RPMI 1640 medium with 10% heat-inactivated fetal calf serum (FCS) (GIBCO, Grand Island Biological Co., Grand Island, N.Y., USA) and with 1% penicillin/streptomycin in a humidified atmosphere with 5% CO2.
The cell numbers were determined by means of a microcell counter CC-108 (Sysmex, Kobe, Japan). For the tests, cells in the logarithmic growth phase were used.
Logarithmically-growing HL-60 cells were prepared in a density of 0.1×10^6 cells/ml in tissue culture flasks and incubated with various concentrations of the stilbene derivatives to be examined. After 72 hours, the cells were counted by means of the microcell counter. The viability of the cells was determined by means of trypan blue staining. Numbers of viable cells were calculated as results.
After 72 hours, the cells were counted by means of the microcell counter. The viability of the cells was determined by means of trypan blue staining. Numbers of viable cells were calculated as results.

Test [2] deals with LNCaP. The test is described as follows: Clonogenic test series (7 d) in LNCaP prostate cancer cells. The class given is cell-based. As to conditions: Homo sapiens, 168 h, LNCaP cells respond to 5-alpha-dihydrotestosterone.
Test [3] relates to PC-3. The test is described as follows: Clonogenic test series (7 d) in PC-3 prostate cancer cells. The test is classed as cell-based. As to conditions: Homo sapiens, PC-3, 168 h.
Test [4] relates to DU-145. The test is described as follows: Clonogenic test series (7 d) in DU-145 prostate cancer cells. The class given is cell-based. The conditions noted are these: Homo sapiens, DU-145, 168 h.
Test [5] deals with T1, COX 2 (Homo sapiens, UniProt P35354).
T1 construct: purchased IBL Products Company, Hamburg, Germany
T1 sequence (P35354 18-604): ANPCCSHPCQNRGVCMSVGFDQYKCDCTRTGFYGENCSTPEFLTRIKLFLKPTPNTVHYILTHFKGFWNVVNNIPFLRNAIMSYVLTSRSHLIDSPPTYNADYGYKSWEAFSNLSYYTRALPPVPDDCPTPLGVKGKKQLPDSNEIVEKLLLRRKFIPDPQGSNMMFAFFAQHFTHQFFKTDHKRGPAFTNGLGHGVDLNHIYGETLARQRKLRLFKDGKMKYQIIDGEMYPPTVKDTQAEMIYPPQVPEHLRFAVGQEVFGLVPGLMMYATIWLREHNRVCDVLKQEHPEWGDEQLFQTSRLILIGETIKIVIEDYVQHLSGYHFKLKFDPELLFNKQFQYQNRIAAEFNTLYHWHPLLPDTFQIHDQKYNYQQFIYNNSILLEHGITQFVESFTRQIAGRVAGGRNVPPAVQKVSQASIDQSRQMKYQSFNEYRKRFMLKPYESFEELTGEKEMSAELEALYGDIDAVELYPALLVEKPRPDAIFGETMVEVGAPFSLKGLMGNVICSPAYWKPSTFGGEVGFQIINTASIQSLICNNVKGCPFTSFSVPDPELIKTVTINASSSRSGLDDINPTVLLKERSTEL
The test is described as follows: COX (human) inhibitor screening assay, COX 2. The conditions noted are these: for COX2/COX1 Ratio: ratio of COX 2 IC50 to COX 1 IC50. The class given is biochemical.

In test [6] the target is T2, COX 1 (Homo sapiens, UniProt P23219).
T2 construct: purchased IBL Products Company, Hamburg, Germany
T2 sequence (P23219 24-599): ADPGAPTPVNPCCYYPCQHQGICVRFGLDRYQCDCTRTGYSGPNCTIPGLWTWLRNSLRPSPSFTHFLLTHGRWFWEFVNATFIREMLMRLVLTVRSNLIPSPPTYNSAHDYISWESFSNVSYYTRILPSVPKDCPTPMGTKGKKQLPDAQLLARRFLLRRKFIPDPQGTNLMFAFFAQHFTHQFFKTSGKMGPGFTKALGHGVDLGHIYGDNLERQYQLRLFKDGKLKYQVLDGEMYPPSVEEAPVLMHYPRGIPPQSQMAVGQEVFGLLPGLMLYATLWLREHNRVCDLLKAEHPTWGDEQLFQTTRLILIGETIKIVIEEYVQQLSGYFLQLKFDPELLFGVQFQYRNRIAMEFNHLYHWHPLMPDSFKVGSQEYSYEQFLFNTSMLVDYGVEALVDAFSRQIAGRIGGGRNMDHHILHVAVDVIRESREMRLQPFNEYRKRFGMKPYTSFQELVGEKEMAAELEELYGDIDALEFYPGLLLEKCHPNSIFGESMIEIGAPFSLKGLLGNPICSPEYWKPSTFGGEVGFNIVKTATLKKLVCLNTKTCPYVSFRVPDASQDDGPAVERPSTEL
Description: COX (human) inhibitor screening assay, COX 1. The class given is biochemical.

Test [7] deals with HL-60 cells. The test is described as follows: Cell cycle distribution by FACS in HL-60 cells. The test is classed as cell-based, human. The conditions noted are these: 24 hours. How it is done:
HL-60 cells were incubated in the presence of hexahydroxystilbene. After 24 hours, the cells were washed, centrifuged and fixed in alcohol. Then, […] and examined by means of FACS analysis. Then, the cell cycle phase distribution was calculated.
(A flow cytometer gives signals particle by particle.)

Test [8] relates to HL-60 cells. Description: Apoptosis induction, Hoechst 33258/propidium iodide double staining in HL-60 cells. The conditions noted are these: 24 hours. The class given is cell-based, human. As for the experimental part: Then, the cells were treated for one hour with Hoechst 33258 (HO, Sigma, St. Louis, Mo., USA) and propidium iodide (PI, Sigma, St. Louis, Mo., USA) (5 μg/ml and 2 μg/ml). Then, the cells were photographed by means of a fluorescence microscope, and the cells were divided morphologically into early apoptotic, late apoptotic and necrotic cells. […] The results are plotted in FIG. 4.

Test [9] has as its system HT-29 human colon tumor cells. Description: Analysis of intracellular dATP pools in HT-29 cells. The test is classed as cell-based. As to conditions: 4 μM, HT-29, average. How it is done:
(§1) The analysis of the intracellular dNTP concentrations was carried out according to the method of Garrett and Santi (Garrett, C.; Santi, D. V. A Rapid and Sensitive High-Pressure Liquid Chromatography Assay for Deoxyribonucleoside Triphosphates in Cell Extracts. Anal Biochem. 1979 Nov. 1; 99(2): 268-73.)
(§2) The action of hexahydroxystilbene (“M8”) on the intracellular dNTP concentrations in HL-60 cells was examined. The study was performed as described above. The cells were incubated with 6.25, 12.5 and 25 μM of hexahydroxystilbene, and then the dNTP pools were determined. […] The dATP concentrations dropped during treatment with 12.5 and 25 μM of hexahydroxystilbene to 27 and 41% of the starting values. The depletion of the dATP pools was especially impressive in the case of HT-29 human colon tumor cells; the dATP values dropped there as early as after treatment with 4 μM of the substance in an average of 1.5% of the starting values. […] The action of the substance can also be clarified by this impressive imbalance of the dNTP pools that are precursors of the DNA synthesis. The results of the experiment with HL-60 cells are plotted in FIG. 3.

Test [10] concerns HL-60 cells. The test is described as follows: Analysis of intracellular dNTP pools by HPLC in HL-60 cells. The test is classed as cell-based, human. As for the experimental part:
as §1, §2

Where [11] appears, read: HL-60, Table 3, 72 h, read-out: Growth inhibition (72 h) HL-60.
[12] abbreviates: HL-60, 1st determination series, 72 hours, read-out: IC50 (μM), inhibition of growth of HL-60 human promyelocyte leukemia cells.
The mark [13] stands for this setting: HL-60, read-out: IC50 (50% inhibition of cell growth), HL-60, 2nd determination series, 72 hours of incubation.

Where two headings read alike, the source gives them in different places.

As for `COc1cc(C=Cc2cc(OC)cc(OC)c2)cc(OC)c1` [M1, 3,3′,5,5′-Tetramethoxystilbene], the IC50 in test [1] (setting [11]) is above 100 µM; in test [2], 21 µM; in [3], 35 µM; in test [4], 25 µM.

In the case of `COc1cc(C=Cc2cc(OC)c(OC)c(OC)c2)cc(OC)c1` [M2, 3,3′,4,5,5′-Pentamethoxystilbene], the IC50 in test [1] (setting [12]) is 25 µM; in test [1] (setting [11]) it was 25 µM; in test [2], above 100 µM; in [3], 21 µM; in test [4], 68 µM; in [5], 0.6 µM. The IC50 in [6] came to 10 µM. Moreover, the “COX2/COX1 Ratio” value in [5] was found to be 0.06.

On to `COc1cc(C=Cc2cc(OC)c(OC)c(OC)c2)cc(OC)c1OC` [M3, 3,3′,4,4′,5,5′-Hexamethoxystilbene], for which the IC50 is above 100 µM in [1] (setting [12]); above 100 µM in [1] (setting [11]); 37 µM in test [2]; 5.5 µM in test [3]; 12.5 µM in test [4]; 0.5 µM in test [5]. Moreover, the IC50 in test [6] amounted to 10 µM. For the same molecule, the “COX2/COX1 Ratio” value in [5] is 0.05.

`COc1ccc(C=Cc2cc(OC)c(OC)c(OC)c2)cc1` [M4, 3,4,4′,5-Tetramethoxystilbene]: the IC50 in test [1] (setting [11]) turned out to be 20 µM; in test [2], 0.4 µM; in [3], 3 µM; in [4], 0.4 µM.

Regarding `COc1cccc(C=Cc2cc(OC)cc(OC)c2)c1` [M5, 3,3′,5-Trimethoxystilbene], the IC50 in test [1] (setting [11]) is 5 µM; in test [2], 6.25 µM; in test [3], 3 µM; in [4], 6 µM.

With `COc1cc(C=Cc2ccc(OC)c(OC)c2)cc(OC)c1` [M5A, 3,3′,4′,5-Tetramethoxystilbene], the IC50 in [1] (setting [11]) is 25 µM; in [2], 6.25 µM; in [3], 35 µM; in test [4], 30 µM.

As for `Oc1cc(O)cc(C=Cc2cc(O)cc(O)c2)c1` [M6, 3,3′,5,5′-Tetrahydroxystilbene], the IC50 was 12.5 µM in test [1] (setting [12]); 12.5 µM in test [1] (setting [11]); 84 µM in test [2]; 16 µM in [3]; 17 µM in [4]; below 0.001 µM in [5]. The same molecule registered an IC50 in [6] of 0.01 µM. The “COX2/COX1 Ratio” value in [5] is below 0.1.

For the molecule `Oc1cc(O)cc(C=Cc2cc(O)c(O)c(O)c2)c1` [M7, 3,3′,4,5,5′-Pentahydroxystilbene], the IC50 was determined as 10 µM in test [1] (setting [12]); 10 µM in test [1] (setting [11]); 7.5 µM in test [2]; 5 µM in test [3]; 23 µM in test [4]; 0.005 µM in test [5]. In [6], the IC50 was determined as 0.01 µM. Further, the “COX2/COX1 Ratio” value in [5] is recorded as 0.5.

Consider `Oc1cc(C=Cc2cc(O)c(O)c(O)c2)cc(O)c1O` [M8, 3,3′,4,4′,5,5′-Hexahydroxystilbene], for which the IC50 in test [1] (setting [13]) was 6.25 µM; in test [1] (setting [12]), 4 µM; in test [1] (setting [11]), 4 µM; in test [1] (HL-60, adding 50 or 100 μM of vitamin C, read-out: IC50 of growth inhibition, HL-60, with added vitamin C), 2 µM; in test [2], 3.4 µM; in [3], 2.5 µM. Also, the IC50 turned out to be 25 µM in test [4], 0.001 µM in test [5] and 0.5 µM in test [6]. In addition, the “Cell cycle distribution, G2-M phase, in words” value in test [7] was “a depletion of cells resulted in the G2-M phase”. Besides, in [7], the “Cell cycle distribution, S phase, in words” value is reported as “stopped the cells in S phase”. The “Cells with induction of apoptosis” value in [8] (6.25 μM) is 68.5%. Also, in [8], the “Apoptosis induction compared with resveratrol, in words” value is listed as “induced apoptosis in these cells in the case of significantly lower concentrations than resveratrol”. Also, the “dATP values, % of the starting values” in [9] is reported as 1.5%. The “dCTP pools, % of the control values” in test [10] (6.25 μM) turned out to be 110%; in [10] (12.5 μM) it was 137%; in [10] (25 μM), 199%. Further, the “dTTP pools, % of the starting values” in [10] (6.25 μM) is given as 84%; in test [10] (12.5 μM) it was 72%; in test [10] (25 μM) it was 27%. The results for the “dATP concentrations, % of the starting values” in test [10] (12.5 μM) and in test [10] (25 μM) were 27% and 41%, respectively.

As to `Oc1ccc(C=Cc2cc(O)c(O)c(O)c2)cc1` [M9, 3,4,4′,5-Tetrahydroxystilbene], the IC50 turned out to be 9 µM in test [1] (setting [12]); 9 µM in [1] (setting [11]); 9.5 µM in test [2]; 8 µM in test [3]; 30 µM in test [4]; 0.01 µM in [5]. Besides, the IC50 in test [6] was 5 µM. Besides, in [5], the “COX2/COX1 Ratio” value was 0.002.

For the molecule `Oc1cc(O)cc(C=Cc2ccc(O)c(O)c2)c1` [M10, 3,3′,4′,5-Tetrahydroxystilbene], the IC50 worked out at 9 µM in [1] (setting [12]); 9 µM in [1] (setting [11]); 33 µM in test [2]; 18 µM in [3]; 58 µM in test [4]; 0.005 µM in [5]. In test [6], this molecule registered an IC50 of 5 µM.

For the molecule `Oc1ccc(C=Cc2cc(O)cc(O)c2)cc1` [Resveratrol, 3,4′,5-Trihydroxystilbene, reference compound], the IC50 in test [1] (setting [13]) came to 12 µM; in [1] (setting [12]), 12 µM; in test [1] (setting [11]), 12 µM; in test [2] it was 5 µM; in test [3], 16 µM; in test [4], 10 µM.

Take `O=C1O[C@H]([C@@H](O)CO)C(O)=C1O` [Vitamin C, reference compound]: in [1] (50 or 100 μM, alone), the “Action on cell growth of HL-60, in words” value was “no action on the cell growth”.
